Assay results from ChEMBL document CHEMBL4312020, “Design, synthesis and biological evaluation of oseltamivir derivatives containing pyridyl group as potent inhibitors of neuraminidase for influenza A” (Eur J Med Chem, 2020).

How the values were obtained:
[1] = target: Neuraminidase (Influenza A virus (A/Puerto Rico/8/1934(H1N1))) (UniProt P03468); details: Influenza A virus (A/Anhui/1/2005(H5N1)); at 100 µM
[2] = target: Neuraminidase (Influenza A virus (A/Puerto Rico/8/1934(H1N1))) (UniProt P03468); details: Influenza A virus (A/Anhui/1/2005(H5N1)); at 1 µM
[3] = target: Neuraminidase (Influenza A virus (A/Puerto Rico/8/1934(H1N1))) (UniProt P03468); details: Influenza A virus (A/Anhui/1/2005(H5N1)); at 10 µM
in vitro [4] = details: rat, liver microsomes
[5] = Oral bioavailability in Sprague-Dawley rat at 50 mg/kg measured upto 24 hrs by LC-MS/MS analysis; type: ADME, organism-based; details: in vivo
[6] = AUC in Sprague-Dawley rat at 50 mg/kg, po measured upto 24 hrs by LC-MS/MS analysis; type: ADME, organism-based; parameters: dose 50 mg/kg, time < 24 hr, route oral; details: in vivo
[7] = MRT in Sprague-Dawley rat at 50 mg/kg, po measured upto 24 hrs by LC-MS/MS analysis; type: ADME, organism-based; details: in vivo
[8] = Half life in Sprague-Dawley rat at 50 mg/kg, po measured upto 24 hrs by LC-MS/MS analysis; type: ADME, organism-based; details: in vivo
[9] = Tmax in Sprague-Dawley rat at 50 mg/kg, po measured upto 24 hrs by LC-MS/MS analysis; type: ADME, organism-based; details: in vivo
[10] = Cmax in Sprague-Dawley rat at 50 mg/kg, po measured upto 24 hrs by LC-MS/MS analysis; type: ADME, organism-based; parameters: dose 50 mg/kg, route oral; details: in vivo
[11] = AUC in Sprague-Dawley rat at 10 mg/kg, iv measured upto 24 hrs by LC-MS/MS analysis; type: ADME, organism-based; parameters: dose 10 mg/kg, time < 24 hr, route intravenous; details: in vivo
[12] = Bioavailability in Sprague-Dawley rat at 10 mg/kg, iv measured upto 24 hrs by LC-MS/MS analysis; type: ADME, organism-based; details: in vivo
[13] = MRT in Sprague-Dawley rat at 10 mg/kg, iv measured upto 24 hrs by LC-MS/MS analysis; type: ADME, organism-based; details: in vivo
[14] = Half life in Sprague-Dawley rat at 10 mg/kg, iv measured upto 24 hrs by LC-MS/MS analysis; type: ADME, organism-based; details: in vivo
[15] = Stability in human plasma assessed as compound remaining incubated for 120 mins by LC-MS/MS analysis; type: ADME, cell-free; details: read-out: Stability
[16] = Stability in human plasma assessed as compound remaining incubated for 60 mins by LC-MS/MS analysis; type: ADME, cell-free; details: read-out: Stability
[17] = Stability in human plasma assessed as compound remaining incubated for 10 mins by LC-MS/MS analysis; type: ADME, cell-free; details: read-out: Stability
[18] = Stability in human plasma assessed as compound remaining incubated for 30 mins by LC-MS/MS analysis; type: ADME, cell-free; details: read-out: Stability
[19] = Stability in human plasma assessed as compound remaining incubated for 0 mins by LC-MS/MS analysis; type: ADME, cell-free; details: read-out: Stability
[20] = target: Neuraminidase (Influenza A virus (A/Puerto Rico/8/1934(H1N1)), UniProt P03468); parameters: species or system Influenza A virus (A/Anhui/1/2005(H5N1))
Chain of Neuraminidase (Influenza A virus (A/Puerto Rico/8/1934(H1N1)), UniProt P03468) (P03468 whole entry): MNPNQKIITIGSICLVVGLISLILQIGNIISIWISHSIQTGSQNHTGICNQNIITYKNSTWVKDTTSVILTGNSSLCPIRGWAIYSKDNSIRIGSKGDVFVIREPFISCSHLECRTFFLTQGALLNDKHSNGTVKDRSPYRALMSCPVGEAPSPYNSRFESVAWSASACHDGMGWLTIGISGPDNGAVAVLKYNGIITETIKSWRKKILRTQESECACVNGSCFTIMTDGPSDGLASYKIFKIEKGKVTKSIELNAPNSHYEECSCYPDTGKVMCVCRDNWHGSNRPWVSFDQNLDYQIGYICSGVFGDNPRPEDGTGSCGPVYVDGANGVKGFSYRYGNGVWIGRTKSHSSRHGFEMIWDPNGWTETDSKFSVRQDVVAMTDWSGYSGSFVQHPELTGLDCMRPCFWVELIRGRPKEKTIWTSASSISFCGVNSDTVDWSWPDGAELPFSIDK

in vitro [21] = details: human, liver microsomes
in vitro [22] = details: human, liver microsomes; remark: listed apart in the source
in vitro [23] = details: rat, liver microsomes; remark: listed apart in the source
Influenza A virus [24] = assay: microbe, parasite or virus in culture; details: (A/LiaoNing-ZhenXing/1109/2010(H1N1), MDCK, 72 h
Influenza A virus [25] = assay: microbe, parasite or virus in culture; details: A/Puerto Rico/8/1934(H1N1), MDCK, 72 h
in vitro [26] = details: dog, MDCK cells
[27] = target: Neuraminidase (Influenza A virus (A/Puerto Rico/8/1934(H1N1)), UniProt P03468); assay: Inhibition of Influenza A virus A/WSN/1933(H1N1) Neuraminidase using MU-NANA as substrate preincubated for 30 mins followed by substrate addition and measured after 1 hr by spectrofluorometry relative to control
[28] = Inhibition of Influenza A virus A/Taiwan/3446/2002(H3N2) Neuraminidase using MU-NANA as substrate preincubated for 30 mins followed by substrate addition and measured after 1 hr by spectrofluorometry relative to control

Chain of Neuraminidase (Influenza A virus (A/Puerto Rico/8/1934(H1N1))) (P03468 whole entry): as above

Work on `CCC(CC)O[C@@H]1C=C(C(=O)O)C[C@H](Nc2ccc([N+](=O)[O-])cn2)[C@H]1NC(C)=O` yielded an inhibition [1] of 87.1% and an inhibition [2] of 8.9%.
Work on `CCC(CC)O[C@@H]1C=C(C(=O)O)C[C@H](Nc2ncc(C)cc2N)[C@H]1NC(C)=O` yielded an inhibition [1] of 46.8% and an inhibition [3] of 25.9%.
Compound `O=C(O)Cc1ccccc1Nc1c(Cl)cccc1Cl` [DICLOFENAC] has a half-life at 1 h (in vitro [4]) of 17.1 min.
`CCC(CC)O[C@@H]1C=C(C(=O)O)C[C@H](Nc2nc(OC)ccc2NC(C)=O)[C@H]1NC(C)=O` gave an inhibition [1] of 75.7% and an inhibition [2] of 10.1%.
`CCC(CC)O[C@@H]1C=C(C(=O)O)C[C@H](Nc2ncccc2NC(=O)c2ccccc2)[C@H]1NC(C)=O` showed an inhibition [1] of 7.6%.
`CCC(CC)O[C@@H]1C=C(C(=O)O)C[C@H](Nc2nc(OC)ccc2[N+](=O)[O-])[C@H]1NC(C)=O` showed an inhibition [1] of 82.9% and an inhibition [2] of 27.9%.
With `CCC(CC)O[C@@H]1C=C(C(=O)O)C[C@H](Nc2ncc(Br)cc2NC(C)=O)[C@H]1NC(C)=O` the inhibition [1] was 46.7%.
With `CCC(CC)O[C@@H]1C=C(C(=O)O)C[C@H](Nc2ncccc2N)[C@H]1NC(C)=O` the bioavailability [5] was 1.58%, the AUC at 24 h [6] was 358 ng·h/mL and the MRT [7] was 127 min. For the same compound, the half-life [8] was 94.2 min, the Tmax [9] was 19.8 min and the Cmax [10] was 253 ng/mL. For the same compound, the AUC at 24 h [11] was 4540 ng·h/mL, the F [12] was 100% and the MRT [13] was 11.4 min. For the same compound, the half-life [14] was 30.6 min, the remaining at 2 h [15] was 102% and the remaining at 1 h [16] was 113%. It also gave a remaining at 10 min [17] of 95.1%, a remaining at 0.5 h [18] of 103% and a remaining at 0 h [19] of 100%. For the same compound, the IC50 [20] was 0.32 µM, the inhibition [1] was 92.4% and the inhibition [3] was 87.6%. For the same compound, the half-life at 1 h (in vitro [21]) was over 145 min, the remaining at 1 h (in vitro [22]) was 87.5% and the half-life at 1 h (in vitro [4]) was over 145 min. For the same compound, the remaining at 1 h (in vitro [23]) was 85.5%, the EC50 (Influenza A virus [24]) was 14.3 µM and the EC50 (Influenza A virus [25]) was 12.7 µM.
`CCC(CC)O[C@@H]1C=C(C(=O)O)C[C@H](Nc2ccc(NC(=O)c3ccccc3)cn2)[C@H]1NC(C)=O` gave an inhibition [1] of 18.6%.
With `CC(C)[N+](C)(CCOC(=O)C1c2ccccc2Oc2ccccc21)C(C)C` [PROPANTHELINE BROMIDE] the remaining at 2 h [15] was 0.7%, the remaining at 1 h [16] was 10.1% and the remaining at 10 min [17] was 68.2%. It also gave a remaining at 0.5 h [18] of 34.8% and a remaining at 0 h [19] of 100%.
Compound `CCC(CC)O[C@@H]1C=C(C(=O)O)C[C@H](Nc2nc(OC)ccc2N)[C@H]1NC(C)=O` has an inhibition [1] of 81.4% and an inhibition [3] of 41.3%.
Compound `CCC(CC)O[C@@H]1C=C(C(=O)O)C[C@H](Nc2ccc(NC(C)=O)cn2)[C@H]1NC(C)=O` has an inhibition [1] of 38.7% and an inhibition [2] of 9.6%.
Work on `CCCC(=O)Nc1cc(Br)cnc1N[C@H]1CC(C(=O)O)=C[C@@H](OC(CC)CC)[C@@H]1NC(C)=O` yielded an inhibition [1] of 41.5% and an inhibition [2] of 6.8%.
In the case of `CCC(CC)O[C@@H]1C=C(C(=O)O)C[C@H](Nc2nccc(C)c2N)[C@H]1NC(C)=O`, the inhibition [1] is reported as 24.2% and the inhibition [3] is reported as 10.7%.
With `CCC(=O)Nc1ccc(OC)nc1N[C@H]1CC(C(=O)O)=C[C@@H](OC(CC)CC)[C@@H]1NC(C)=O` the inhibition [1] was 10.7%.
In the case of `CCC(CC)O[C@@H]1C=C(C(=O)O)C[C@H](Nc2ccc(N)cn2)[C@H]1NC(C)=O`, the inhibition [1] is reported as 67.7% and the inhibition [3] is reported as 30%.
Compound `CCC(CC)O[C@@H]1C=C(C(=O)O)C[C@H](Nc2ncc(Br)cc2N)[C@H]1NC(C)=O` has an inhibition [1] of 55.9% and an inhibition [3] of 26.8%.
In the case of `CCC(CC)O[C@@H]1C=C(C(=O)O)C[C@H](N)[C@H]1NC(C)=O` [OSELTAMIVIR CARBOXYLATE], the CC50 at 72 h (in vitro [26]) is reported as over 1000 µM, the EC50 (Influenza A virus [24]) is reported as 67.5 µM and the EC50 (Influenza A virus [25]) is reported as 2.49 µM.
Work on `CCC(CC)O[C@@H]1C=C(C(=O)O)C[C@H](Nc2ncccc2[N+](=O)[O-])[C@H]1NC(C)=O` yielded an inhibition [1] of 76.1% and an inhibition [2] of 9.1%.
In the case of `CCC(CC)O[C@@H]1C=C(C(=O)O)C[C@H](Nc2ncc(Br)cc2NC(=O)C(C)C)[C@H]1NC(C)=O`, the inhibition [1] is reported as 79.3% and the inhibition [2] is reported as 19.1%.
`CCC(CC)O[C@@H]1C=C(C(=O)O)C[C@H](Nc2nc(OC)ccc2NC(=O)c2ccccc2)[C@H]1NC(C)=O` showed an inhibition [1] of 70.6%.
In the case of `CCCC(=O)Nc1cccnc1N[C@H]1CC(C(=O)O)=C[C@@H](OC(CC)CC)[C@@H]1NC(C)=O`, the inhibition [1] is reported as 22.1%.
In the case of `CCC(CC)O[C@@H]1C=C(C(=O)O)C[C@H](Nc2ncc(Br)cc2[N+](=O)[O-])[C@H]1NC(C)=O`, the inhibition [1] is reported as 54.3%.
Work on `CCC(CC)O[C@@H]1C=C(C(=O)O)C[C@H](Nc2ncc(Br)cc2NC(=O)c2ccccc2)[C@H]1NC(C)=O` yielded an inhibition [1] of 36.9%.
`CCCC(=O)Nc1ccc(OC)nc1N[C@H]1CC(C(=O)O)=C[C@@H](OC(CC)CC)[C@@H]1NC(C)=O` showed an inhibition [1] of 76.3% and an inhibition [2] of 16%.
With `CC(=O)N[C@H]1[C@H]([C@H](O)[C@H](O)CO)OC(C(=O)O)=C[C@@H]1NC(=N)NC(=O)CSc1cccc2ccccc12` the IC50 [27] was 0.0023 µM and the IC50 [28] was 0.0029 µM.
